Test [1] deals with T1, Peroxisome proliferator-activated receptor alpha (Homo sapiens, UniProt Q07869).
T1 sequence (Q07869 whole entry): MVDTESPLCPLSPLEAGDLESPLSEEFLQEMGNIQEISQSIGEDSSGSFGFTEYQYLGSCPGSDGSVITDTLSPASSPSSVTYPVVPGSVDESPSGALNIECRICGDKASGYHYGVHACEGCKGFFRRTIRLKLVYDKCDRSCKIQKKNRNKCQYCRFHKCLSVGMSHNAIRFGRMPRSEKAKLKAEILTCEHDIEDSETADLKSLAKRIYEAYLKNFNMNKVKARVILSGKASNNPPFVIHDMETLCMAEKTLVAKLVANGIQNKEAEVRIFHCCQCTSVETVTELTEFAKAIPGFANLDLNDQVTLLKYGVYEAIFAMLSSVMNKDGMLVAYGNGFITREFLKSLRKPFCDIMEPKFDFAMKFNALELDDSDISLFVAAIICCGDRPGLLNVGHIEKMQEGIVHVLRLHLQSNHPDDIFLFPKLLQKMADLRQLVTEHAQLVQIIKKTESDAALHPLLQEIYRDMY
As to the kind of experiment: Ligand binding affinity was determined by displacement of a tritiated tracer by the unlabeled compound to a GST-PPAR fusion protein for Peroxisome proliferator activated receptor alpha containing residues.

In test [2] the target is T2, Peroxisome proliferator-activated receptor gamma (Homo sapiens, UniProt P37231).
T2 sequence (P37231 whole entry): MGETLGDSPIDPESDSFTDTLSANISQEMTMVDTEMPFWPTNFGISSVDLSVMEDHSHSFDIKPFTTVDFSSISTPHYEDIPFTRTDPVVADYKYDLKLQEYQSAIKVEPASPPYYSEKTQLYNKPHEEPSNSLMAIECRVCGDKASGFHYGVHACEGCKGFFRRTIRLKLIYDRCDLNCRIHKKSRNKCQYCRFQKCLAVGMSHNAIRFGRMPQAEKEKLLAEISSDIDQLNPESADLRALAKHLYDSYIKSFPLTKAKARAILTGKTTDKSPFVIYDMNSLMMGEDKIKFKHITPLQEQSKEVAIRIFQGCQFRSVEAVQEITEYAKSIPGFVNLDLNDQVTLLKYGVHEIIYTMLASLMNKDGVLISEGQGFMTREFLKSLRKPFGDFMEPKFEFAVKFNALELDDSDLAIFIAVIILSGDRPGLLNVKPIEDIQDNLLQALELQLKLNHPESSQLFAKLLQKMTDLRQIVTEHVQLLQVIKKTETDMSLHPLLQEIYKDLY
As to the kind of experiment: Ligand binding affinity was determined by displacement of a tritiated tracer by the unlabeled compound to a GST-PPAR fusion protein for Peroxisome proliferator activated receptor gamma containing residues.

Test [3] deals with T2, Peroxisome proliferator-activated receptor gamma. As to the kind of experiment: Transactivation potency was measured by luciferase activity in Caco- 2/TC7 cells transiently co-transfected for the fusion-protein Gal4-PPAR gamma. Type of test: functional, cell-based.
The target of test [4] is T1, Peroxisome proliferator-activated receptor alpha. As to the kind of experiment: Transactivation potency was measured by luciferase activity in Caco- 2/TC7 cells transiently co-transfected for the fusion-protein Gal4-PPAR alpha. In kind it is functional, cell-based.

Ki and EC50 data for 16 molecules are collected here from ChEMBL document CHEMBL1135007, “Synthesis and pharmacological evaluation of a new class of peroxisome proliferator-activated receptor modulators” (Bioorg Med Chem Lett, 2002).

Bounds are passed on as bounds.

As for `O=C(Nc1ccc(Oc2ncccn2)cc1C(=O)O)c1ccc(Cl)cc1Cl`, the values for the Ki in test [1] and in test [2] were > 100 µM and 0.1 µM, respectively. For the same molecule, the EC50 (usually the concentration giving half of the maximal effect) in test [3] was 1.3 µM; in test [4] it was > 100 µM.
Take `O=C(Nc1ccc(Oc2ccc([N+](=O)[O-])cn2)cc1C(=O)O)c1ccc(Cl)cc1Cl`: the figures for the Ki in test [1] and in test [2] were > 100 µM and 0.18 µM, respectively. In addition, the results for the EC50 in test [3] and in test [4] were 0.4 µM and > 100 µM, respectively.
Regarding `O=C(Nc1ccc(-c2ccsc2)cc1C(=O)O)c1ccc(Cl)cc1Cl`, the Ki – broadly, the dissociation constant of the complex between target and ligand, obtained from inhibition or displacement – in test [1] worked out at 28 µM; in test [2] it was 0.9 µM. Also, the EC50 in test [3] was found to be 0.7 µM; in test [4], 12 µM.
The like results for `CCOc1cccc(-c2ccc(NC(=O)c3ccc(Cl)cc3Cl)c(C(=O)O)c2)c1` were, in that order, > 100 µM, 1.2 µM, 0.3 µM and > 100 µM.
The like results for `Cc1ccc(NC(=O)c2ccc(Cl)cc2Cl)c(C(=O)O)c1` were, in that order, 30 µM, 2.2 µM, 1.6 µM and 9.5 µM.
The like results for `O=C(Nc1ccc(-c2ccco2)cc1C(=O)O)c1ccc(Cl)cc1Cl` were, in that order, 22 µM, 0.5 µM, 1 µM and 10 µM.
For the molecule `O=C(Nc1ccc(-c2cccc3cccnc23)cc1C(=O)O)c1ccc(Cl)cc1Cl`, the Ki was > 100 µM in test [1] and 0.7 µM in test [2]. The values for the EC50 in test [3] and in test [4] were 0.3 µM and > 100 µM, respectively.
Consider `O=C(Nc1ccc(Oc2cncc(Cl)n2)cc1C(=O)O)c1ccc(Cl)cc1Cl`, for which the Ki came to 21 µM in test [1] and 0.16 µM in test [2]. For the same molecule, the figures for the EC50 in test [3] and in test [4] were 0.45 µM and > 100 µM, respectively.
For `O=C(Nc1ccc(OCCc2cccs2)cc1C(=O)O)c1ccc(Cl)cc1Cl`, in that order: > 100 µM, 1 µM, 0.7 µM and > 100 µM.
The like results for `CSCCOc1ccc(NC(=O)c2ccc(Cl)cc2Cl)c(C(=O)O)c1` were, in that order, 19 µM, 1.6 µM, 0.6 µM and 2.5 µM.
The like results for `CCOc1ccc(COc2ccc(NC(=O)c3ccc(Cl)cc3Cl)c(C(=O)O)c2)cc1` were, in that order, > 100 µM, 3.6 µM, 0.7 µM and > 100 µM.
For the molecule `O=C(Nc1ccc(OCc2cccs2)cc1C(=O)O)c1ccc(Cl)cc1Cl`, the Ki in test [1] amounted to 25 µM; in test [2] it was 0.4 µM. Moreover, the EC50 in test [3] was found to be 0.3 µM; in test [4], 5 µM.
For `O=C(O)c1cccc(-c2ccc(NC(=O)c3ccc(Cl)cc3Cl)c(C(=O)O)c2)c1`, in that order: 67 µM, 1.4 µM, > 100 µM and > 100 µM.
For `O=C(Nc1ccc(Oc2ncccc2[N+](=O)[O-])cc1C(=O)O)c1ccc(Cl)cc1Cl`, in that order: > 100 µM, 0.17 µM, 0.4 µM and > 100 µM.
For `O=C(Nc1ccc(OCCc2ccsc2)cc1C(=O)O)c1ccc(Cl)cc1Cl`, in that order: 20 µM, 0.6 µM, 0.8 µM and 3.8 µM.
Consider `O=C(Nc1ccc(OCCc2ccccn2)cc1C(=O)O)c1ccc(Cl)cc1Cl`, for which the Ki in test [1] is > 100 µM; in test [2] it was 1.5 µM. The molecule further showed an EC50 in test [3] of 3.2 µM.
